Data: ChEMBL document CHEMBL3526141, “Characterization of human liver enzymes involved in the biotransformation of boceprevir, a hepatitis C virus protease inhibitor” (Drug Metab Dispos, 2011)
One block for each molecule: values may come before it.

Tests used:
[1] = Drug metabolism in human liver S9 fraction at 20 uM assessed as (1R,2S,5S)-N-((2S,3R)-4-amino-1-cyclobutyl-3-hydroxy-4-oxobutan-2-yl)-3-((S)-2-(3-tert-butylureido)-3,3-dimethylbutanoyl)-6,6-dimethyl-3-azabicyclo[3.1.0]hexane-2-carboxamide formation in presence of quercetin by LC-MS/MS/FSA method; format: ADME, subcellular; conditions: s9, 20 µM
[2] = test system: Liver cytosol; experiment: (§1) Drug metabolism in human liver cytosol at 20 uM assessed as (1R,2S,5S)-N-((2S,3R)-4-amino-1-cyclobutyl-3-hydroxy-4-oxobutan-2-yl)-3-((S)-2-(3-tert-butylureido)-3,3-dimethylbutanoyl)-6,6-dimethyl-3-azabicyclo[3.1.0]hexane-2-carboxamide formation in presence of phenolphthalein by LC-MS/MS/FSA method; format: ADME
[3] = Drug excretion in human feces assessed as oxidative metabolites level; format: ADME; parameters: dosed compound name [14C]boceprevir
[4] = molecular target: T1, Cytochrome P450 2J2 (Homo sapiens, UniProt P51589); experiment: Drug metabolism assessed as human CYP2J2-mediated compound formation from 5 to 20 uM [14C]boceprevir after 120 mins by LC-MS/FSA method relative to total [14C]boceprevir; format: ADME; conditions: recombinant enzyme, 2 h
T1 sequence (P51589 whole entry): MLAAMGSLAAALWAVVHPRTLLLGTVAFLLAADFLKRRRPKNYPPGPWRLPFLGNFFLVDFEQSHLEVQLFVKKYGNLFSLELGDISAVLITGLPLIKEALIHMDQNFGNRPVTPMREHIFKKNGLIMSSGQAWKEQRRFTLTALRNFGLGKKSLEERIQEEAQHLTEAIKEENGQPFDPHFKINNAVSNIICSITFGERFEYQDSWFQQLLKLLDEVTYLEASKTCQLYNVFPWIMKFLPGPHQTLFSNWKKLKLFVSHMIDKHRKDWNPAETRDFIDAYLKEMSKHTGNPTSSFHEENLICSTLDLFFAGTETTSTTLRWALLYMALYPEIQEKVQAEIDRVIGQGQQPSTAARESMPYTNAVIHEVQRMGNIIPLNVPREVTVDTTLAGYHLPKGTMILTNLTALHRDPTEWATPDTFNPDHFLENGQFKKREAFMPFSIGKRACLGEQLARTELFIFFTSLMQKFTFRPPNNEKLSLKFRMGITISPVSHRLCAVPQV

[5] = test system: Liver cytosol; experiment: Drug metabolism in human liver cytosol at 20 uM assessed as (1R,2S,5S)-N-((2S,3R)-4-amino-1-cyclobutyl-3-hydroxy-4-oxobutan-2-yl)-3-((S)-2-(3-tert-butylureido)-3,3-dimethylbutanoyl)-6,6-dimethyl-3-azabicyclo[3.1.0]hexane-2-carboxamide formation in presence of BNPP by LC-MS/MS/FSA method; format: ADME
[6] = Drug metabolism in human liver S9 fraction at 20 uM assessed as (1R,2S,5S)-N-((2S,3R)-4-amino-1-cyclobutyl-3-hydroxy-4-oxobutan-2-yl)-3-((S)-2-(3-tert-butylureido)-3,3-dimethylbutanoyl)-6,6-dimethyl-3-azabicyclo[3.1.0]hexane-2-carboxamide formation in presence of pargyline by LC-MS/MS/FSA method; format: ADME, subcellular; conditions: s9, 20 µM
[7] = test system: Liver cytosol; experiment: as §1, with “formation at 20 uM after 60 mins” for “formation”, “co-incubation with ritonavir” for “phenolphthalein”; format: ADME; conditions: 1 h
[8] = test system: Liver cytosol; experiment: Drug metabolism in human liver cytosol at 20 uM assessed as (1R,2S,5S)-N-((2S,3R)-4-amino-1-cyclobutyl-3-hydroxy-4-oxobutan-2-yl)-3-((S)-2-(3-tert-butylureido)-3,3-dimethylbutanoyl)-6,6-dimethyl-3-azabicyclo[3.1.0]hexane-2-carboxamide formation in presence of mefenamic acid by LC-MS/MS/FSA method; format: ADME
[9] = molecular target: T2, Aldo-keto reductase family 1 member C2 (Homo sapiens, UniProt P52895); experiment: Drug metabolism in human recombinant AKR1C2 expressing HEK293 cells treated with 20 uM boceprevir assessed as 1 mM ibuprofen-mediated inhibition of AKR1C2-mediated metabolite formation after 120 mins in presence of NADPH by LC-MS/MS/FSA method; format: ADME, cell-based; parameters: interact cpd dose 1 mM; conditions: hek293, 2 h
T2 sequence (P52895 whole entry): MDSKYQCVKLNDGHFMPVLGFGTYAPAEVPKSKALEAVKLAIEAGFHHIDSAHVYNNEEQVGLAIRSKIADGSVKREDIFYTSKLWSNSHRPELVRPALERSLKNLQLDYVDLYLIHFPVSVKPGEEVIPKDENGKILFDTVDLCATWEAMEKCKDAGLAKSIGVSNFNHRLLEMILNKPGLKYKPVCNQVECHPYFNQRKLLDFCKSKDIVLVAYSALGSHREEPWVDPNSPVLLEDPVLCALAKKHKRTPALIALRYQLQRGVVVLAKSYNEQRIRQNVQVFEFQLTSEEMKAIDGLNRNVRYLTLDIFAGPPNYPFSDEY

[10] = test system: Liver cytosol; experiment: Drug metabolism in human liver cytosol treated with 20 uM [14C]SCH 534128 assessed as 100 uM diazepam-mediated inhibition of metabolite formation LC-MS/MS/FSA method; format: ADME, tissue-based; parameters: interact cpd dose 100 uM
[11] = test system: Liver cytosol; experiment: Drug metabolism in human liver cytosol treated with 20 uM assessed as compound formation in presence of NADPH generating system by LC-MS/MS/FSA method; format: ADME
[12] = molecular target: T2, Aldo-keto reductase family 1 member C2; experiment: Drug metabolism in human recombinant AKR1C2 expressing HEK293 cells treated with 20 uM boceprevir assessed as 1 mM BNPP-mediated inhibition of AKR1C2-mediated metabolite formation after 120 mins in presence of NADPH by LC-MS/MS/FSA method; format: ADME, cell-based; parameters: interact cpd dose 1 mM; conditions: hek293, 2 h
[13] = Drug metabolism in human liver S9 fraction treated with 20 uM assessed as compound formation in presence of NADPH generating system by LC-MS/MS/FSA method; format: ADME, subcellular
[14] = test system: Liver cytosol; experiment: Drug metabolism in human liver cytosol assessed as (1R,2S,5S)-N-((2R,3R)-4-amino-1-cyclobutyl-3-hydroxy-4-oxobutan-2-yl)-3-((S)-2-(3-tert-butylureido)-3,3-dimethylbutanoyl)-6,6-dimethyl-3-azabicyclo[3.1.0]hexane-2-carboxamide formation per mg protein after 60 mins by LC-MS/MS/FSA method; format: ADME, tissue-based; conditions: 1 h
[15] = molecular target: Cytochrome P450 3A4 (Homo sapiens, UniProt P08684); experiment: Drug metabolism assessed as human CYP3A4-mediated compound formation from 5 uM [14C]boceprevir after 120 mins by LC-MS/FSA method relative to total [14C]boceprevir; format: ADME; conditions: recombinant enzyme, 2 h, BLD = below limit of detection
Sequence of Cytochrome P450 3A4 (P08684 whole entry): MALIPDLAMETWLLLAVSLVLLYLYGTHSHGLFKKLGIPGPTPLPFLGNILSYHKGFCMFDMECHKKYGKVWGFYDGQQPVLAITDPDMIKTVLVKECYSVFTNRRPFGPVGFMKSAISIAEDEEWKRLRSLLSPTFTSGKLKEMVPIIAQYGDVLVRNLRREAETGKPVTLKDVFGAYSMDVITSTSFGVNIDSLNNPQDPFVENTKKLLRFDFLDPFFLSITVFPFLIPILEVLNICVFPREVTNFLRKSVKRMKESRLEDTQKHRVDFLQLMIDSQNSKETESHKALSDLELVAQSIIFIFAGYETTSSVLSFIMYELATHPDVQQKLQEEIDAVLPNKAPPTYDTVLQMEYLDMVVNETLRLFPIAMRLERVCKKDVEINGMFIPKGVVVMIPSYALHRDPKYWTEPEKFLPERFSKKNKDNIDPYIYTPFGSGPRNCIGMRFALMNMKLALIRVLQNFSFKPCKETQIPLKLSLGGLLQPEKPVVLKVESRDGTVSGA

[16] = molecular target: Cytochrome P450 3A5 (Homo sapiens, UniProt P20815); experiment: Drug metabolism assessed as human CYP3A5-mediated compound formation from 5 uM [14C]boceprevir after 120 mins by LC-MS/FSA method relative to total [14C]boceprevir; format: ADME; conditions: recombinant enzyme, 2 h
Sequence of Cytochrome P450 3A5 (P20815 whole entry): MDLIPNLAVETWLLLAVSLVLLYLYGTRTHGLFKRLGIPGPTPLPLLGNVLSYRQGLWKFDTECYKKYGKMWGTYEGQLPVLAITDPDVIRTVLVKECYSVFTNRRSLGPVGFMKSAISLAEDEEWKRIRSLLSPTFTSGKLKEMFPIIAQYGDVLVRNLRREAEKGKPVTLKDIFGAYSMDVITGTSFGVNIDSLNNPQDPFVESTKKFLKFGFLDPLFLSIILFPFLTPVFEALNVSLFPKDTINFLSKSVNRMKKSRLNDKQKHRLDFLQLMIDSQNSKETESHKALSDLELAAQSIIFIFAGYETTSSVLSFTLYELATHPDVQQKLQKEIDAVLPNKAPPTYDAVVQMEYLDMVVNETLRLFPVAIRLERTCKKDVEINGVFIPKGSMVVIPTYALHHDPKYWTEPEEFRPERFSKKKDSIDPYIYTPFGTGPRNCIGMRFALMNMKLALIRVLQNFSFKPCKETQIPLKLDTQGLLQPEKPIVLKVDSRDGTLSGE

[17] = test system: Liver cytosol; experiment: Drug metabolism in human liver cytosol at 20 uM assessed as (1R,2S,5S)-N-((2R,3R)-4-amino-1-cyclobutyl-3-hydroxy-4-oxobutan-2-yl)-3-((S)-2-(3-tert-butylureido)-3,3-dimethylbutanoyl)-6,6-dimethyl-3-azabicyclo[3.1.0]hexane-2-carboxamide formation in presence of flufenamic acid by LC-MS/MS/FSA method; format: ADME
[18] = test system: Liver microsome; experiment: Drug metabolism in human liver microsomes treated with 5 uM [14C]boceprevir assessed as compound formation by LC-MS/FSA method relative to total [14C]boceprevir; format: ADME

Compound recovery [1]: metabolite_not_detected
Compound recovery [2]: metabolite_not_detected
Radiolabel recovery [3]: 50%
Compound recovery [4]: metabolite_not_detected
Compound recovery [5]: metabolite_not_detected
Compound recovery [6]: metabolite_detected
Compound recovery [7]: metabolite_detected
Compound recovery [8]: metabolite_not_detected
SMILES: CC(C)(C)NC(=O)N[C@H](C(=O)N1C[C@H]2[C@@H]([C@H]1C(=O)NC(CC1CCC1)C(=O)C(N)=O)C2(C)C)C(C)(C)C (stereo partly drawn) [BOCEPREVIR]

inhibition (INH) [9]: > 89%
inhibition (INH) [10]: 72.9%
Compound recovery [11]: 68%
inhibition (INH) [12]: 82%
Compound recovery [13]: 28%
SMILES: CC(C)(C)NC(=O)N[C@H](C(=O)N1C[C@H]2[C@@H]([C@H]1C(=O)N[C@@H](CC1CCC1)[C@@H](O)C(N)=O)C2(C)C)C(C)(C)C

Vmax [14]: 0.846 pmol/min
Compound recovery [15]: BLD
Compound recovery [16]: 2.19%
Compound recovery [17]: metabolite_not_detected
Compound recovery [18]: 0.31%
SMILES: CC(C)(C)NC(=O)N[C@H](C(=O)N1C[C@H]2[C@@H]([C@H]1C(=O)N[C@H](CC1CCC1)C(=O)C(N)=O)C2(C)C)C(C)(C)C
